Data published in patent publication US9402819B2, “Anti-HIV compound and preparation method and use thereof” (Sichuan University, priority 2012, dated 2016).
Converted amounts (≈) assume the structure as drawn.

What was measured:
[1] = Cytotoxicity (CC50) in H9 cells; format: cell-based, human; details: human
Method: (§1) The anti-HIV activity was determined by the “Guiding Principles of Anti HIV Drug Unclinical Pharmacodynamics” of SFDA which is tested by technology standard assay according to International Universal Standards and Methods. Where in CC50, EC50 were measured twice and took the average.

HIV-1IIIB [2] = test: Anti-HIV activity in C8166 cells; format: cell-based; details: for TI: CC50/EC50
Method: as §1

[3] = Cytotoxicity (CC50) in C8166 cells; format: cell-based; details: human
Method: as §1

HIV-1IIIB [4] = test: Anti-HIV activity in H9 cells; format: cell-based; details: for TI: CC50/EC50
Method: as §1

[5] = Human immunodeficiency virus 1, HIV-1IIIB, C8166 cells, read-out: EC50
[6] = Human immunodeficiency virus 1, HIV-1IIIB, H9 cells, read-out: EC50

SMILES: COc1ccccc1NC(=O)c1cc(C(F)(F)F)ccc1Sc1ccc([N+](=O)[O-])cc1 [Compound 22, N-(2-methoxyphenyl)-2-((4-nitrophenyl)thio)-5-(trifluoromethyl)benzamide]
- CC50 ([1]; H9 cells, read-out: CC50): > 200 µg/mL

SMILES: COc1ccccc1NC(=O)c1cc([N+](=O)[O-])ccc1Sc1ccc([N+](=O)[O-])cc1 [Compound 23, N-(2-methoxyphenyl)-5-nitro-2-(4-nitrophenylthio)benzamide]
- CC50 ([1]; H9 cells, read-out: CC50): > 200 µg/mL
- EC50 (HIV-1IIIB [2]; [5]): > 200 µg/mL
- CC50 [3]: > 200 µg/mL
- EC50 (HIV-1IIIB [4]; [6]): > 200 µg/mL

SMILES: COc1ccccc1NC(=O)c1cc(NC(C)=O)ccc1Sc1ccc([N+](=O)[O-])cc1 [Compound 29, 5-acetamido-N-(2-methoxyphenyl)-2-((4-nitrophenyl)thio)benzamide]
- CC50 ([1]; H9 cells, read-out: CC50): 74.6 µg/mL (≈ 171 µM)
- TI (HIV-1IIIB [2]; C8166 cells): 1.49
- EC50 (HIV-1IIIB [2]; [5]): 73.5 µg/mL (≈ 168 µM)
- CC50 [3]: 110 µg/mL (≈ 251 µM)
- TI (HIV-1IIIB [4]; H9 cells): <0.37
- EC50 (HIV-1IIIB [4]; [6]): > 200 µg/mL

SMILES: Nc1cccc(NC(=O)c2c(N)cccc2Sc2ccc([N+](=O)[O-])cc2)c1 [Compound 49, 2-amino-N-(3-aminophenyl)-6-(4-nitroph-enylthio)benzamide]
- CC50 ([1]; H9 cells, read-out: CC50): > 200 µg/mL
- TI (HIV-1IIIB [4]; H9 cells): 4.82
- EC50 (HIV-1IIIB [4]; [6]): 41.5 µg/mL (≈ 109 µM)

SMILES: COc1cc(N)ccc1NC(=O)c1c(N)cccc1Sc1ccc([N+](=O)[O-])cc1 [Compound 50, 2-amino-N-(4-amino-2-methoxyphenyl)-6-(4-nitrophenylthio)benzamide]
- CC50 ([1]; H9 cells, read-out: CC50): 81.1 µg/mL (≈ 197 µM)
- TI (HIV-1IIIB [4]; H9 cells): 2.87
- EC50 (HIV-1IIIB [4]; [6]): 28.3 µg/mL (≈ 68.9 µM)

SMILES: COc1ccc(NC(=O)c2c(N)cccc2Sc2ccc([N+](=O)[O-])cc2)c(OC)c1 [Compound 51, 2-amino-N-(2,4-dimethoxyphenyl)-6-(4-nitrophenylthio)benzamide]
- CC50 ([1]; H9 cells, read-out: CC50): 18.1 µg/mL (≈ 42.5 µM)
- TI (HIV-1IIIB [4]; H9 cells): 0.96
- EC50 (HIV-1IIIB [4]; [6]): 18.8 µg/mL (≈ 44.3 µM)

SMILES: COc1ccccc1NC(=O)c1c(Sc2ccc([N+](=O)[O-])cc2)cccc1[N+](=O)[O-] [Compound 52, N-(2-methoxyphenyl)-2-nitro-6-(4-nitrophenylthio)benzamide]
- CC50 ([1]; H9 cells, read-out: CC50): > 200 µg/mL
- EC50 (HIV-1IIIB [4]; [6]): > 200 µg/mL

SMILES: Nc1ccccc1NC(=O)c1c(Sc2ccc([N+](=O)[O-])cc2)cccc1[N+](=O)[O-] [Compound 53, N-(2-aminophenyl)-2-nitro-6-(4-nitrophenylthio)benzamide]
- CC50 ([1]; H9 cells, read-out: CC50): > 200 µg/mL
- TI (HIV-1IIIB [4]; H9 cells): >4.58
- EC50 (HIV-1IIIB [4]; [6]): 43.7 µg/mL (≈ 106 µM)

SMILES: O=C(O)c1cccc(NC(=O)c2c(Sc3ccc([N+](=O)[O-])cc3)cccc2[N+](=O)[O-])c1 [Compound 54, 3-(2-nitro-6-(4-nitrophenylthio)benzamildo)benzoic acid]
- CC50 [1]: 85.8 µg/mL (≈ 195 µM)
- TI (HIV-1IIIB [4]; H9 cells): 1.02
- EC50 (HIV-1IIIB [4]; [6]): 83.9 µg/mL (≈ 191 µM)

SMILES: Nc1ccc(NC(=O)c2c(Sc3ccc([N+](=O)[O-])cc3)cccc2[N+](=O)[O-])cc1 [Compound 55, N-(4-aminophenyl)-2-nitro-6-(4-nitrophenylthio)benzamide]
- CC50 ([1]; H9 cells, read-out: CC50): > 200 µg/mL
- EC50 (HIV-1IIIB [2]; [5]): > 200 µg/mL
- CC50 [3]: > 200 µg/mL
- EC50 (HIV-1IIIB [4]; [6]): > 200 µg/mL

SMILES: COc1ccccc1NC(=O)c1c(NS(=O)(=O)c2ccccc2)cccc1Sc1ccc([N+](=O)[O-])cc1 [Compound 56, N-(2-methoxyphenyl)-2-(4-nitrophenylthio)-6-(phenylsulfonamido)benzamide]
- CC50 ([1]; H9 cells, read-out: CC50): > 200 µg/mL
- TI (HIV-1IIIB [2]; C8166 cells): >8.17
- EC50 (HIV-1IIIB [2]; [5]): 24.5 µg/mL (≈ 45.7 µM)
- CC50 [3]: > 200 µg/mL
- TI (HIV-1IIIB [4]; H9 cells): >1.46
- EC50 (HIV-1IIIB [4]; [6]): 137 µg/mL (≈ 256 µM)

SMILES: COc1ccccc1NC(=O)c1c(NS(=O)(=O)c2ccc(C)cc2)cccc1Sc1ccc([N+](=O)[O-])cc1 [Compound 57, N-(2-methoxyphenyl)-2-(4-methylphenylsulfonamido)-6-((4-nitrophenyl)thio)benzamide]
- CC50 ([1]; H9 cells, read-out: CC50): > 200 µg/mL
- TI (HIV-1IIIB [2]; C8166 cells): 2.65
- EC50 (HIV-1IIIB [2]; [5]): 14.1 µg/mL (≈ 25.6 µM)
- CC50 [3]: 37.2 µg/mL (≈ 67.8 µM)
- TI (HIV-1IIIB [4]; H9 cells): >11.90
- EC50 (HIV-1IIIB [4]; [6]): 16.8 µg/mL (≈ 30.6 µM)

SMILES: COc1ccccc1NC(=O)c1c(N(C)C)cccc1S(=O)(=O)c1ccc([N+](=O)[O-])cc1 [Compound 58, 2-(dimethylamino)-N-(2-methoxyphenyl)-6-((4-nitrophenyl)sulfonyl)benzamide]
- CC50 ([1]; H9 cells, read-out: CC50): > 200 µg/mL
- CC50 [3]: > 200 µg/mL

SMILES: CNc1cccc(S(=O)(=O)c2ccc([N+](=O)[O-])cc2)c1C(=O)Nc1ccccc1OC [Compound 59, N-(2-methoxyphenyl)-2-(methylamino)-6-((4-nitrophenyl)sulfonyl)benzamide]
- CC50 [3]: > 200 µg/mL

SMILES: COc1ccccc1NC(=O)c1c(NS(=O)(=O)c2ccc(C)cc2)cccc1S(=O)(=O)c1ccc([N+](=O)[O-])cc1 [Compound 60, N-(2-methoxyphenyl)-2-(4-methylphenyls-ulfonamido)-6-((4-nitrophenyl)sulfonyl)benzamide]
- CC50 ([1]; H9 cells, read-out: CC50): > 200 µg/mL
- TI (HIV-1IIIB [2]; C8166 cells): >2.19
- EC50 (HIV-1IIIB [2]; [5]): 91.3 µg/mL (≈ 157 µM)
- CC50 [3]: > 200 µg/mL
- EC50 (HIV-1IIIB [4]; [6]): > 200 µg/mL

SMILES: COc1ccccc1NC(=O)c1c(NS(=O)(=O)c2ccccc2)cccc1S(=O)(=O)c1ccc([N+](=O)[O-])cc1 [Compound 61, N-(2-methoxyphenyl)-2-((4-nitrophenyl)sulfonyl)-6-(phenylsulfonamido)benzamide]
- CC50 ([1]; H9 cells, read-out: CC50): > 200 µg/mL
- CC50 [3]: > 200 µg/mL

SMILES: COc1ccccc1NC(=O)c1c(Sc2ccc([N+](=O)[O-])cc2)cccc1N1CCNCC1 [Compound 62, N-(2-methoxyphenyl)-2-((4-nitrophenyl)thio)-6-(piperazinyl)benzamide]
- CC50 ([1]; H9 cells, read-out: CC50): 14.2 µg/mL (≈ 30.6 µM)
- TI (HIV-1IIIB [2]; C8166 cells): 2.99
- EC50 (HIV-1IIIB [2]; [5]): 3.43 µg/mL (≈ 7.38 µM)
- CC50 [3]: 10.2 µg/mL (≈ 22.1 µM)
- TI (HIV-1IIIB [4]; H9 cells): 3.71
- EC50 (HIV-1IIIB [4]; [6]): 3.83 µg/mL (≈ 8.24 µM)

SMILES: COc1ccccc1NC(=O)c1c(Sc2ccc([N+](=O)[O-])cc2)cccc1N1CCOCC1 [Compound 63, N-(2-methoxyphenyl)-2-morpholino-6-((4-nitrophenyl)thio)benzamide]
- CC50 ([1]; H9 cells, read-out: CC50): > 200 µg/mL
- TI (HIV-1IIIB [2]; C8166 cells): >3.75
- EC50 (HIV-1IIIB [2]; [5]): 53.3 µg/mL (≈ 115 µM)
- CC50 [3]: > 200 µg/mL
- EC50 (HIV-1IIIB [4]; [6]): > 200 µg/mL

SMILES: COc1ccccc1NC(=O)c1c(NCCBr)cccc1Sc1ccc([N+](=O)[O-])cc1 [Compound 64, 2-((2-bromoethyl)amino)-N-(2-methoxyp-henyl)-6-((4-nitrophenyl)thio)benzamide]
- CC50 ([1]; H9 cells, read-out: CC50): 17.8 µg/mL (≈ 35.5 µM)
- TI (HIV-1IIIB [2]; C8166 cells): 3.28
- EC50 (HIV-1IIIB [2]; Human immunodeficiency virus 1, C8166): 3.17 µg/mL (≈ 6.31 µM)
- CC50 [3]: 10.4 µg/mL (≈ 20.7 µM)
- TI (HIV-1IIIB [4]; H9 cells): 0.85
- EC50 (HIV-1IIIB [4]; Human immunodeficiency virus 1, H9): 21 µg/mL (≈ 41.8 µM)

SMILES: COc1ccccc1NC(=O)c1c(NCP(=O)(OC(C)C)OC(C)C)cccc1Sc1ccc([N+](=O)[O-])cc1 [Compound 65, diisopropyl(((2-((2-methoxyphenyl)carbamoyl)-3-((4-nitro-phenyl)thio)phenyl)amino)methyl)phosphonate]
- CC50 ([1]; H9 cells, read-out: CC50): 25.4 µg/mL (≈ 44.3 µM)
- CC50 [3]: 18.8 µg/mL (≈ 32.8 µM)

SMILES: Nc1cccc(Sc2ccc([N+](=O)[O-])cc2)c1C(=O)Nc1ccccc1I [Compound 71, 2-amino-N-(2-iodophenyl)-6-((4-nitrophenyl)thio)benzamide]
- CC50 ([1]; H9 cells, read-out: CC50): > 200 µg/mL
- CC50 [3]: > 200 µg/mL

SMILES: Nc1cccc(S(=O)(=O)c2ccc([N+](=O)[O-])cc2)c1C(=O)Nc1ccccc1I [Compound 72, 2-amino-N-(2-iodophenyl)-6-((4-nitrophenyl)sulfonyl)benzamide]
- CC50 ([1]; H9 cells, read-out: CC50): > 200 µg/mL
- CC50 [3]: > 200 µg/mL

SMILES: CS(=O)(=O)Oc1ccccc1NC(=O)c1c(N)cccc1Sc1ccc([N+](=O)[O-])cc1 [Compound 73, 2-(2-amino-6-((4-nitrophenyl)thio)benzamildo)phenyl methanesulfonate]
- CC50 ([1]; H9 cells, read-out: CC50): > 200 µg/mL
- TI (HIV-1IIIB [2]; C8166 cells): 5.28
- EC50 (HIV-1IIIB [2]; [5]): 36.7 µg/mL
- CC50 [3]: 194 µg/mL
- EC50 (HIV-1IIIB [4]; [6]): > 200 µg/mL

SMILES: COc1ccccc1NC(=O)c1c(N)cccc1Sc1cc(C)cc(C)c1 [Compound 74, 2-amino-6-((3,5-dimethylphenyl)thio)-N-(2-methoxyphenyl)benzamide]
- CC50 ([1]; H9 cells, read-out: CC50): > 200 µg/mL
- TI (HIV-1IIIB [2]; C8166 cells): 9.45
- EC50 (HIV-1IIIB [2]; [5]): 7.26 µg/mL (≈ 19.2 µM)
- CC50 [3]: 68.6 µg/mL (≈ 181 µM)
- EC50 (HIV-1IIIB [4]; [6]): > 200 µg/mL

SMILES: COc1ccccc1NC(=O)c1c(N)cccc1S(=O)(=O)c1cc(C)cc(C)c1 [Compound 75, 2-amino-6-((3,5-dimethylphenyl)sulfonyl)-N-(2-methoxyphenyl)benzamide]
- CC50 ([1]; H9 cells, read-out: CC50): > 200 µg/mL
- EC50 (HIV-1IIIB [2]; [5]): > 200 µg/mL
- CC50 [3]: > 200 µg/mL
- EC50 (HIV-1IIIB [4]; [6]): > 200 µg/mL

SMILES: COc1ccccc1NC(=O)c1c(N)cccc1Sc1ccc(C(=O)O)cc1 [Compound 76, 4-((3-amino-2-((2-methoxyphenyl)carbamoyl)phenyl)thio)benzoic acid]
- CC50 ([1]; H9 cells, read-out: CC50): > 200 µg/mL
- CC50 [3]: > 200 µg/mL

SMILES: COc1ccccc1NC(=O)c1c(N)cccc1S(=O)(=O)c1ccc(C(=O)O)cc1 [Compound 77, 4-((3-amino-2-((2-methoxyphenyl)carbamoyl)phenyl)sulfonyl)benzoic acid]
- CC50 ([1]; H9 cells, read-out: CC50): > 200 µg/mL
- CC50 [3]: > 200 µg/mL

SMILES: COc1ccccc1NC(=O)c1c(NCC(N)=O)cccc1Sc1ccc([N+](=O)[O-])cc1 [Compound 82, 2-((2-amino-2-oxoethyl)amino)-N-(2-methoxyphenyl)-6-((4-nitrophenyl)thio)benzamide]
- CC50 ([1]; H9 cells, read-out: CC50): > 200 µg/mL
- CC50 [3]: > 200 µg/mL
